Read-outs that look alike come from different tables or passages of the source.
Columns and labels:
[1] = system: HBV replication in HepAD38 cells; test: Anti-HBV replication assay in HepAD38 cells (QPCR of extracellular HBV DNA); type: cell-based, HBV (genotype D, serotype ayw); details: 7 days incubation, extracellular HBV DNA by QPCR, read-out: Anti-HBV EC50
In short: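 HepAD38 cells (HepG2 carrying tet-repressible HBV genotype D genome) induced by tetracycline withdrawal, treated 7 days at 37 °C with compound ([…], 1-log10 dilutions). Extracellular HBV DNA quantified by QPCR against a standard curve, normalised to DMSO; EC50 from 4-parameter fit.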

HepG2 cells = test: In vitro cytotoxicity assay (MTT cell viability) in HepG2 cells; type: cell-based, human; details: HepG2 cells, MTT cell viability, 7-day incubation, tested 30 μM to 1.0 nM; read-out: HepG2 CC50
In short: (§1)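 HepG2 seeded overnight, then 7-day compound exposure (30 μM–1.0 nM, half-log steps), 37 °C. MTT 3-4 h, DMSO solubilization, A492. % of vehicle → CC50, 4-PL fit.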

[2] = as above; type: cell-based, human; details: human
In short: as §1

`Cc1cc(NC(=O)c2c(C)c(C(=O)C3=Nc4ccccc4B(O)O3)n(C)c2C)ccc1F` [Example 256, N-(4-fluoro-3-methylphenyl)-5-(1-hydroxy-1H-enxo[c][1,5,2]oxazaborinine-3-carbonyl)-1,2,4-trimethyl-1H-pyrrole-3-carboxamide] showed an EC50 [1] of 0.05 to 0.499 µM and a CC50 (HepG2 cells) of 5 to 30 µM.

In the case of `Cc1c(C(=O)Nc2ccc(F)nc2)c(C)n(C)c1C(=O)C(=O)N[C@]12C[C@@H]3C[C@@H](C[C@H]1C3)C2` [Example 19, N-(6-fluoropyridin-3-yl)-5-(2-(((2R,3as,5S,6as)-hexahydro-2,5-methanopentalen-3a(1H)-yl)amino)-2-oxoacetyl)-1,2,4-trimethyl-1H-pyrrole-3-carboxamide], the EC50 [1] is reported as under 0.05 µM and the CC50 (HepG2 cells) is reported as 5 to 30 µM.

`Cc1c(C(=O)Nc2ccc(F)nc2)c(C)n(C)c1C(=O)C(=O)NC12C[C@@H]3C[C@@H](CC(O)(C3)C1)C2` [Example 16, N-(6-fluoropyridin-3-yl)-5-(2-(((1r,3s,5R,7S)-3-hydroxyadamantan-1-yl)amino)-2-oxoacetyl)-1,2,4-trimethyl-1H-pyrrole-3-carboxamide] showed an EC50 [1] of 0.05 to 0.499 µM and a CC50 (HepG2 cells) of 5 to 30 µM.

Work on `Cc1cc(NC(=O)c2c(C)c(C(=O)C(=O)NC3CCCCC3)n(C)c2C)ccc1F` [Example 262, 5-(2-(cyclohexylamino)-2-oxoacetyl)-N-(4-fluoro-3-methylphenyl)-1,2,4-trimethyl-1H-pyrrole-3-carboxamide] yielded an EC50 ([1]; Hepatitis B virus, 168 h) of under 0.05 µM and a CC50 at 7 days [2] of 5 to 30 µM.

`Cc1noc([C@@H](C)NC(=O)C(=O)c2c(C)c(C(=O)Nc3cnc(F)c(C)c3)c3n2CCCC3)n1` [Example 472, (R)-N-(6-fluoro-5-methylpyridin-3-yl)-2-methyl-3-(2-((1-(3-methyl-1,2,4-oxadiazol-5-yl)ethyl)amino)-2-oxoacetyl)-5,6,7,8-tetrahydroindolizine-1-carboxamide] showed an EC50 ([1]; Hepatitis B virus, 168 h) of over 1 µM and a CC50 at 7 days [2] of over 30 µM.

Work on `Cc1cc(NC(=O)c2c(C)c(C(=O)C(=O)N[C@@H]3CCC[C@H]3O)n(C)c2C)ccc1F` [Example 95, N-(4-fluoro-3-methylphenyl)-5-(2-(((1R,2R)-2-hydroxycyclopentyl)amino)-2-oxoacetyl)-1,2,4-trimethyl-1H-pyrrole-3-carboxamide] yielded an EC50 ([1]; Hepatitis B virus, 168 h) of under 0.05 µM and a CC50 at 7 days [2] of over 30 µM.

Work on `Cc1cc(NC(=O)c2c(C)c(C(=O)C(=O)N[C@@H]3CCC[C@@H](O)C3)n(C)c2C)ccc1F` [Example 287, N-(4-fluoro-3-methylphenyl)-5-(2-(((1R,3R)-3-hydroxycyclohexyl)amino)-2-oxoacetyl)-1,2,4-trimethyl-1H-pyrrole-3-carboxamide] yielded an EC50 ([1]; Hepatitis B virus, 168 h) of under 0.05 µM and a CC50 at 7 days [2] of over 30 µM.

For `Cc1cc(NC(=O)c2c(C)c(C(=O)C(=O)NC3CCSCC3)n(C)c2C)cnc1F` [Example 191, N-(6-fluoro-5-methylpyridin-3-yl)-1,2,4-trimethyl-5-(2-oxo-2-((tetrahydro-2H-thiopyran-4-yl)amino)acetyl)-1H-pyrrole-3-carboxamide], the EC50 ([1]; Hepatitis B virus, 168 h) was under 0.05 µM and the CC50 at 7 days [2] was over 30 µM.

Work on `Cc1cc(NC(=O)c2c(C)c(C(=O)C(=O)NC3(C)C(=O)NCC34CC4)n(C)c2C)ccc1F` (stereo not shown) [Example 680, N-(4-fluoro-3-methylphenyl)-1,2,4-trimethyl-5-(2-((7-methyl-6-oxo-5-azaspiro[2.4]heptan-7-yl)amino)-2-oxoacetyl)-1H-pyrrole-3-carboxamide] yielded an EC50 ([1]; Hepatitis B virus, 168 h) of under 0.05 µM and a CC50 at 7 days [2] of over 30 µM.

`Cc1cc(NC(=O)c2c(C)c(C(=O)C(=O)N[C@H](CO)C(N)=O)n(C)c2C)ccc1F` [Example 54, (R)-5-(2-((1-amino-3-hydroxy-1-oxopropan-2-yl)amino)-2-oxoacetyl)-N-(4-fluoro-3-methylphenyl)-1,2,4-trimethyl-1H-pyrrole-3-carboxamide] gave an EC50 ([1]; Hepatitis B virus, 168 h) of 0.05 to 0.499 µM and a CC50 at 7 days [2] of over 30 µM.

In the case of `Cc1cc(NC(=O)c2c(C)c(C(=O)C(=O)NC3CC(=O)NC(=O)C3)n(C)c2C)ccc1F` [Example 610, 5-(2-((2,6-dioxopiperidin-4-yl)amino)-2-oxoacetyl)-N-(4-fluoro-3-methylphenyl)-1,2,4-trimethyl-1H-pyrrole-3-carboxamide], the EC50 ([1]; Hepatitis B virus, 168 h) is reported as under 0.05 µM and the CC50 at 7 days [2] is reported as over 30 µM.

With `CC[C@H](C)NC(=O)C(=O)c1c(C)c(C(=O)Nc2cnc(F)c(C)c2)c2n1CCCC2` [Example 475, (S)-3-(2-(sec-butylamino)-2-oxoacetyl)-N-(6-fluoro-5-methylpyridin-3-yl)-2-methyl-5,6,7,8-tetrahydroindolizine-1-carboxamide] the EC50 ([1]; Hepatitis B virus, 168 h) was 0.5 to 1 µM and the CC50 at 7 days [2] was over 30 µM.

Work on `Cc1cc(NC(=O)c2cc(C(=O)C(=O)N[C@H](C)C(F)(F)F)n3c2CCCC3)ccc1F` [Example 408, (R)-N-(4-fluoro-3-methylphenyl)-3-(2-oxo-2-((1,1,1-trifluoropropan-2-yl)amino)acetyl)-5,6,7,8-tetrahydroindolizine-1-carboxamide] yielded an EC50 ([1]; Hepatitis B virus, 168 h) of 0.05 to 0.499 µM and a CC50 at 7 days [2] of over 30 µM.

For `Cc1cc(NC(=O)c2c(Cl)c(C(=O)C(=O)NC3(CO)CC(F)(F)C3)n(C)c2C)ccc1F` [Example 366, 4-chloro-5-(2-((3,3-difluoro-1-(hydroxymethyl)cyclobutyl)amino)-2-oxoacetyl)-N-(4-fluoro-3-methylphenyl)-1,2-dimethyl-1H-pyrrole-3-carboxamide], the EC50 ([1]; Hepatitis B virus, 168 h) was under 0.05 µM and the CC50 at 7 days [2] was over 30 µM.

Work on `Cc1cc(Cl)cc(NC(=O)c2c(C)c(C(=O)C(=O)N[C@H](C)C(F)(F)F)n(C)c2C)c1` [Example 686, (R)-N-(3-chloro-5-methylphenyl)-1,2,4-trimethyl-5-(2-oxo-2-((1,1,1-trifluoropropan-2-yl)amino)acetyl)-1H-pyrrole-3-carboxamide] yielded an EC50 ([1]; Hepatitis B virus, 168 h) of under 0.05 µM and a CC50 at 7 days [2] of 0.5 to 4.99 µM.

`CC(=O)N1CCn2c(C(=O)C(=O)NC(C)(C)C)cc(C(=O)Nc3ccc(F)c(C)c3)c2C1` [Example 590, 2-acetyl-6-(2-(tert-butylamino)-2-oxoacetyl)-N-(4-fluoro-3-methylphenyl)-1,2,3,4-tetrahydropyrrolo[1,2-a]pyrazine-8-carboxamide] gave an EC50 ([1]; Hepatitis B virus, 168 h) of 0.5 to 1 µM and a CC50 at 7 days [2] of over 30 µM.

Compound `COC(=O)[C@@H](NC(=O)C(=O)c1c(C)c(C(=O)Nc2ccc(F)c(C)c2)c(C)n1C)[C@H](C)O` [Example 45, methyl (2-(4-((4-fluoro-3-methylphenyl)carbamoyl)-1,3,5-trimethyl-1H-pyrrol-2-yl)-2-oxoacetyl)-L-allothreoninate] has an EC50 ([1]; Hepatitis B virus, 168 h) of 0.5 to 1 µM and a CC50 at 7 days [2] of over 30 µM.

For `Cc1cc(NC(=O)c2c(C)c(C(=O)C(=O)N[C@@H](C)C(F)(F)F)n3c2CCCC3)cnc1F` [Example 470, (S)-N-(6-fluoro-5-methylpyridin-3-yl)-2-methyl-3-(2-oxo-2-((1,1,1-trifluoropropan-2-yl)amino)acetyl)-5,6,7,8-tetrahydroindolizine--1 carboxamide], the EC50 ([1]; Hepatitis B virus, 168 h) was 0.5 to 1 µM and the CC50 at 7 days [2] was 5 to 30 µM.

In the case of `Cc1cc(NC(=O)c2c(C)c(C(=O)C(=O)Nc3ccn(C)n3)n(C)c2C)ccc1F` [Example 306, N-(4-fluoro-3-methylphenyl)-1,2,4-trimethyl-5-(2-((1-methyl-1H-pyrazol-3-yl)amino)-2-oxoacetyl)-1H-pyrrole-3-carboxamide], the EC50 ([1]; Hepatitis B virus, 168 h) is reported as under 0.05 µM and the CC50 at 7 days [2] is reported as over 30 µM.

Work on `O=C(NC1(CO)CC1)C(=O)c1c(Cl)c(C(=O)Nc2ccc(F)c(Cl)c2)c2n1CCC2` [Example 566, 6-chloro-N-(3-chloro-4-fluorophenyl)-5-(2-((1-(hydroxymethyl)cyclopropyl)amino)-2-oxoacetyl)-2,3-dihydro-1H-pyrrolizine-7-carboxamide] yielded an EC50 ([1]; Hepatitis B virus, 168 h) of under 0.05 µM and a CC50 at 7 days [2] of 5 to 30 µM.

`Cc1c(C(=O)Nc2ccc(F)c(F)c2)c2n(c1C(=O)C(=O)NC1(c3nn[nH]n3)CCCC1)CCCC2` [Example 743, 3-(22-((1-(2H-tetrazol-5-yl)cyclopentyl)amino)-2-oxoacetyl)-N-(3,4-difluorophenyl)-2-methyl-5,6,7,8-tetrahydroindolizine-1-carboxamide] showed an EC50 ([1]; Hepatitis B virus, 168 h) of 0.05 to 0.499 µM and a CC50 at 7 days [2] of over 30 µM.

Work on `Cc1cnc(NC(=O)c2c(C)c(C(=O)C(=O)NC(C)(C)CO)n3c2CCCC3)s1` [Example 758, 3-(2-((1-hydroxy-2-methylpropan-2-yl)amino)-2-oxoacetyl)-2-methyl-N-(5-methylthiazol-2-yl)-5,6,7,8-tetrahydroindazoline-1-carboxamide] yielded an EC50 ([1]; Hepatitis B virus, 168 h) of 0.05 to 0.499 µM and a CC50 at 7 days [2] of over 30 µM.

Compound `Cc1cc(NC(=O)c2c(C)c(C(=O)C(=O)NC3CC[C@@H](O)[C@@H](O)CC3)n(C)c2C)ccc1F` (stereo partly drawn) [Example 713, 5-(2-(((4R,5S)-4,5-dihydroxycycloheptyl)amino)-2-oxoacetyl)-N-(4-fluoro-3-methylphenyl)-1,2,4-trimethyl-1H-pyrrole-3-carboxamide] has an EC50 ([1]; Hepatitis B virus, 168 h) of under 0.05 µM and a CC50 at 7 days [2] of over 30 µM.

In the case of `Cc1c(C(=O)Nc2ccc(F)c(F)c2)c2n(c1C(=O)C(=O)NCc1cnc(N)s1)CCCC2` [Example 455, 3-(2-(((2-aminothiazol-5-yl)methyl)amino)-2-oxoacetyl)-N-(3,4-difluorophenyl)-2-methyl-5,6,7,8-tetrahydroindolizine-1-carboxamide], the EC50 ([1]; Hepatitis B virus, 168 h) is reported as under 0.05 µM and the CC50 at 7 days [2] is reported as 5 to 30 µM.

`Cc1cc(NC(=O)c2cc(C(=O)C(=O)NC(C)(C)C)n3c2CNCC3)ccc1F` [Example 588, 6-(2-(tert-butylamino)-2-oxoacetyl)-N-(4-fluoro-3-methylphenyl)-1,2,3,4-tetrahydropyrrolo[1,2-a]pyrazine-8-carboxamide] showed an EC50 ([1]; Hepatitis B virus, 168 h) of 0.05 to 0.499 µM and a CC50 at 7 days [2] of 5 to 30 µM.

For `Cc1c(C(=O)Nc2ccc(F)c(Cl)c2)c(Cl)c(C(=O)C(=O)NC(C)(C)C)n1C` [Example 370, 5-(2-(tert-butylamino)-2-oxoacetyl)-4-chloro-N-(3-chloro-4-fluorophenyl)-1,2-dimethyl-1H-pyrrole-3-carboxamide], the EC50 ([1]; Hepatitis B virus, 168 h) was under 0.05 µM and the CC50 at 7 days [2] was over 30 µM.
